Source: US10696639B2, “Heterocyclic compounds as HIV protease inhibitors” (Merck Sharp & Dohme Corp., priority 2016, dated 2020)

Molecular target: T1, wild-type HIV-1 protease (Human immunodeficiency virus type 1 group M subtype B, UniProt P04585)
T1 construct: Escherichia coli expressed wild-type HIV-1 protease protein; made in house; host or cells: Escherichia coli
Test: Assay for Inhibition of Microbial Expressed HIV Protease
Assay type: biochemical
Details: E. coli expressed wild-type HIV-1 protease, peptide substrate cleavage, LC-MS readout; mean of at least two independent experiments; read-out: HIV Pr Enzyme HIV1 PR IC50
Method: Assay for Inhibition of Microbial Expressed HIV Protease
Inhibition of Escherichia coli expressed wild-type HIV-1 protease protein was carried out with a peptide substrate [Val-Ser-Gln-Asn-(βnaphtyl)Ala-Pro-Ile-Val]. The inhibitor compound was preincubated with HIV-1 protease enzyme in assay buffer (50 mM sodium acetate, pH 5.5, 100 mM NaCl, and 0.1% BSA) for 30 minutes at room temperature. Peptide substrate was added to […] in a total volume of 20 μL containing 20 pM HIV-1 protease (final) after which the reaction was incubated for 1 hour at 30° C. The reaction was quenched by the addition of formic acid and HIV protease inhibitor indinavir to 0.012% and 150 nM final concentrations, respectively. Product formation was determined after separation of product and substrate on a ZORBAX Eclipse XDB-C18 column (Aligent Technologies, Santa Clara, Calif., USA) connected to an API 4000™ mass spectrometer (AB Sciex, Pte. Ltd., Concord Ontario, Canada) with multiple reaction monitoring (transitions were 644.5/428.9 and 615.4/422.2 (M1/M3) for product and indinavir respectively). The extent of inhibition of the reaction was determined from the peak area of the products. Analysis of the products, independently synthesized, provided quantitation standards and confirmation of the product composition.

| Compound | IC50 [nM] |
| --- | --- |
| COC(=O)N[C@@H](Cc1ccccc1)C(=O)NCCC[C@@H](C)N1C(=N)N[C@](CC(C)C)(c2ccccc2)C1=O [Example 54, N-{(4R)-4-[(4R)-2-imino-4-(2-methylpropyl)-5-oxo-4-phenylimidazolidin-1-yl]pentyl}-N-alpha-(methoxycarbonyl)-L-phenylalaninamide] | 190 |
| COC(=O)N[C@@H](Cc1ccc2ccccc2c1)C(=O)N[C@@H](C)CCCN1C(=N)N[C@](CC(C)C)(c2ccccc2)C1=O [Example 42, methyl ((S)-1-(((S)-5-((R)-2-imino-4-isobutyl-5-oxo-4-phenylimidazolidin-1-yl)pentan-2-yl)amino)-3-(naphthalen-2-yl)-1-oxopropan-2-yl)carbamate] | 46 |
| CC[C@@H](CCCN1C(=N)N[C@](CC(C)C)(c2ccccc2)C1=O)NC(=O)[C@H](Cc1cccc(Cl)c1)NC(=O)OC [Example 49, 3-chloro-N-{(1S)-1-ethyl-4-[(4R)-2-imino-4-(2-methylpropyl)-5-oxo-4-phenylimidazolidin-1-yl]butyl}-N-alpha-(methoxycarbonyl)-L-phenylalaninamide] | 15 |
| COC(=O)N[C@@H](Cc1ccc(Cl)cc1)C(=O)N[C@@H](C)CCCN1C(=N)N[C@](CC(C)C)(c2ccccc2)C1=O [Example 37, 4-chloro-N-{(1S)-4-[(4R)-2-imino-4-(2-methylpropyl)-5-oxo-4-phenylimidazolidin-1-yl]-1-methylbutyl}-N-alpha-(methoxycarbonyl)-L-phenylalamnamide] | 61 |
| COC(=O)N[C@@H](Cc1cccc(Cl)c1)C(=O)N[C@@H](C)CCCN1C(=N)N[C@](CC(C)C)(c2ccccc2)C1=O [Example 35, 3-chloro-N-{(1S)-4-[(4R)-2-imino-4-(2-methylpropyl)-5-oxo-4-phenylimidazolidin-1-yl]-1-methylbutyl}-N-alpha-(methoxycarbonyl)-L-phenylalaninamide] | 20 |
| CC1(OC(=O)N[C@@H](Cc2ccccc2)C(=O)NCCCCN2C(=N)NC(c3ccccc3)(c3ccccc3)C2=O)CC1 [Example 23, N-[4-(2-imino-5-oxo-4,4-diphenylimidazolidin-1-yl)butyl]-N-alpha-{[(1-methylcyclopropyl)oxy]carbonyl}-L-phenylalaninamide] | 16 |
| COC(=O)N[C@@H](Cc1cccc(OC)c1)C(=O)N[C@@H](C)CCCN1C(=N)N[C@](CC(C)C)(c2ccccc2)C1=O [Example 40, N-{(1S)-4-[(4R)-2-imino-4-(2-methylpropyl)-5-oxo-4-phenylimidazolidin-1-yl]-1-methylbutyl}-3-methoxy-N-alpha-(methoxycarbonyl)-L-phenylalaninamide] | 54 |
| COC(=O)N[C@@H](Cc1cccnc1)C(=O)NCCCCN1C(=N)NC(c2ccccc2)(c2ccccc2)C1=O [Example 8, methyl [(1S)-2-{[4-(2-imino-5-oxo-4,4-diphenylimidazolidin-1-yl)butyl]amino}-2-oxo-1-(pyridin-3-ylmethyl)ethyl]carbamate] | 12 |
| COC(=O)N[C@@H](Cc1ccc(OC)cc1)C(=O)N[C@@H](C)CCCN1C(=N)N[C@](CC(C)C)(c2ccccc2)C1=O [Example 1, N-{(1S)-4-[(4R)-2-imino-4-(2-methylpropyl)-5-oxo-4-phenylimidazolidin-1-yl]-1-methylbutyl}-N-alpha-(methoxycarbonyl)-O-methyl-L-tyrosinamide] | 18 |
| COC(=O)N[C@@H](Cc1ccncc1)C(=O)NCCCCN1C(=N)NC(CC(C)C)(c2ccccc2)C1=O (stereo partly drawn) [Example 21, methyl [(1S)-2-({4-[2-imino-4-(2-methylpropyl)-5-oxo-4-phenylimidazolidin-1-yl]butyl}amino)-2-oxo-1-(pyridin-4-ylmethyl)ethyl]carbamate] | 46 |
| COC(=O)N[C@@H](Cc1ccccc1)C(=O)N[C@H](CCCN1C(=N)N[C@](CC(C)C)(c2ccccc2)C1=O)C(F)(F)F [Example 46, N-[(1R)-4-[(4R)-2-imino-4-(2-methylpropyl)-5-oxo-4-phenylimidazolidin-1-yl]-1-(trifluoromethyl)butyl]-N-alpha-(methoxycarbonyl)-L-phenylalaninamide] | 32 |
| COC(=O)N[C@@H](Cc1cccc(Cl)c1)C(=O)NC(CCCN1C(=N)N[C@](CC(C)C)(c2ccccc2)C1=O)CC1CC1 (stereo partly drawn) [Example 30, 3-chloro-N-{1-(cyclopropylmethyl)-4-[(4R)-2-imino-4-(2-methylpropyl)-5-oxo-4-phenylimidazolidin-1-yl]butyl}-N-alpha-(methoxycarbonyl)-L-phenylalaninamide] | 97 |
| COC(=O)N[C@@H](Cc1cccc(Cl)c1)C(=O)N[C@H](CCCN1C(=N)N[C@](CC(C)C)(c2ccccc2)C1=O)C1CC1 [Example 32, 3-chloro-N-{(1R)-1-cyclopropyl-4-[(4R)-2-imino-4-(2-methylpropyl)-5-oxo-4-phenylimidazolidin-1-yl]butyl}-N-alpha-(methoxycarbonyl)-L-phenylalaninamide] | 43 |
| CC(C)OC(=O)N[C@@H](Cc1ccccc1)C(=O)NCCCCN1C(=N)NC(c2ccccc2)(c2ccccc2)C1=O [Example 26, N-[4-(2-imino-5-oxo-4,4-diphenylimidazolidin-1-yl)butyl]-N-alpha-[(1-methylethoxy)carbonyl]-L-phenylalaninamide] | 27 |
| COC(=O)N[C@@H](Cc1ccccc1Cl)C(=O)N[C@H](CCCN1C(=N)N[C@](CC(C)C)(c2ccccc2)C1=O)C(C)C [Example 44, 2-chloro-N-[(1R)-4-[(4R)-2-imino-4-(2-methylpropyl)-5-oxo-4-phenylimidazolidin-1-yl]-1-(1-methylethyl)butyl]-N-alpha-(methoxycarbonyl)-L-phenylalaninamide] | 20 |
| N#Cc1cccc(C[C@H](N)C(=O)NCCCCN2C(=N)NC(c3ccccc3)(c3ccccc3)C2=O)c1 [Example 24, 3-cyano-N-[4-(2-imino-5-oxo-4,4-diphenylimidazolidin-1-yl)butyl]-L-phenylalaninamide] | 22 |
| COC(=O)N[C@@H](Cc1ccccc1)C(=O)N[C@@H](C)CCCN1C(=N)NC(c2ccccc2)(c2ccccc2)C1=O [Example 7, N-[(1S)-4-(2-imino-5-oxo-4,4-diphenylimidazolidin-1-yl)-1-methylbutyl]-N-alpha-(methoxycarbonyl)-L-phenylalaninamide] | 2 |
| CC[C@@H](CCCN1C(=N)N[C@](CC(C)C)(c2ccccc2)C1=O)NC(=O)[C@H](Cc1ccc(Cl)cc1)NC(=O)OC [Example 48, 4-chloro-N-{(1S)-1-ethyl-4-[(4R)-2-imino-4-(2-methylpropyl)-5-oxo-4-phenylimidazolidin-1-yl]butyl}-N-alpha-(methoxycarbonyl)-L-phenylalaninamide] | 14 |
| COC(=O)N[C@@H](Cc1ccccc1)C(=O)N[C@H](CCCN1C(=N)N[C@](CC(C)C)(c2ccccc2)C1=O)C(C)C [Example 45, N-[(1R)-4-[(4R)-2-imino-4-(2 methylpropyl)-5-oxo-4-phenylimidazolidin-1-yl]-1-(1 methylethyl)butyl]-N-alpha-(methoxycarbonyl)-L-phenylalaninamide] | 27 |
| COC(=O)N[C@@H](Cc1ccccc1)C(=O)NCCC[C@@H](C1CC1)N1C(=N)N[C@](CC(C)C)(c2ccccc2)C1=O [Example 52, N-{(4S)-4-cyclopropyl-4-[(4R)-2-imino-4-(2-methylpropyl)-5-oxo-4-phenylimidazolidin-1-yl]butyl}-N-alpha-(methoxycarbonyl)-L-phenylalaninamide] | 605 |
| COC(=O)N[C@@H](Cc1ccccc1)C(=O)NCCCCCN1C(=N)NC(c2ccccc2)(c2ccccc2)C1=O [Example 15, N-[5-(2-imino-5-oxo-4,4-diphenylimidazolidin-1-yl)pentyl]-N-alpha-(methoxycarbonyl)-L-phenylalaninamide] | 98 |
| N=C1NC(c2ccccc2)(c2ccccc2)C(=O)N1CCCCCNC(=O)[C@@H](N)Cc1ccccc1 [Example 14, N-[5-(2-imino-5-oxo-4,4-diphenylimidazolidin-1-yl)pentyl]-L-phenylalaninamide] | 67 |
| COC(=O)N[C@@H](Cc1ccncc1)C(=O)NCCCCN1C(=N)NC(c2ccccc2)(c2ccccc2)C1=O [Example 13, methyl [(1S)-2-{[4-(2-imino-5-oxo-4,4-diphenylimidazolidin-1-yl)butyl]amino}-2-oxo-1-(pyridin-4-ylmethyl)ethyl]carbamate] | 7 |
| COC(=O)N[C@@H](Cc1ccccc1)C(=O)NCCC[C@@H](CC1CC1)N1C(=N)N[C@](CC(C)C)(c2ccccc2)C1=O [Example 53, N-{(4S)-5-cyclopropyl-4-[(4R)-2-imino-4-(2-methylpropyl)-5-oxo-4-phenylimidazolidin-1-yl]pentyl}-N-alpha-(methoxycarbonyl)-L-phenylalaninamide] | 249 |
| N=C1NC(c2ccccc2)(c2ccccc2)C(=O)N1CCCCNC(=O)[C@@H](N)Cc1ccccc1 [Example 2, N-[4-(2-imino-5-oxo-4,4-diphenylimidazolidin-1-yl)butyl]-L-phenylalaninamide] | 11 |
| CC(=O)N[C@@H](Cc1ccccc1)C(=O)NCCCCN1C(=N)NC(c2ccccc2)(c2ccccc2)C1=O [Example 3, N-alpha-acetyl-N-[4-(2-imino-5-oxo-4,4-diphenylimidazolidin-1-yl)butyl]-L-phenylalaninamide] | 8 |
